Like-named read-outs stand apart in the source and are kept apart here. A value given as a limit tells only on which side of the number the result lay.

Data set [1] has as its target FTO (Homo sapiens (Human), UniProt Q9C0B1). The data set can be described thus: FTO enzyme inhibition (m6A dsDNA substrate, DpnII digestion, gel readout). In kind it is biochemical. As to conditions: for inhibition at 50 µM: read-out: Inhibition rate; for Inhibition rate: in vitro inhibition rate on FTO, compound at 50 μM. On the procedure: High purity FTO protein was obtained by nickel column affinity chromatography purification.
After incubation at room temperature for 2 hrs, the reaction system was then slowly heated to 65° C. to inactivate, and 1 μM 39 nt of antisense strand DNA was added to anneal, thereby forming double strands. […] After Gel-Red dyeing, photos were taken with gel imaging system. The obtained band was subjected to gray scale reading to obtain inhibition rate.

Data set [2] relates to human small cell lung cancer cell lines (SCLC-21H). Kind of data set: MTS cytotoxicity on SCLC-21H cells. In kind it is cell-based. As to conditions: for inhibition at 50 µM / Inhibition rate (human small cell lung cancer SCLC-21H): 72 h, 50 μM; for inhibition at 50 µM: read-out: Inhibition rate (human small cell lung cancer SCLC-21H); for IC50: read-out: Cytotoxicity on cell line SCLC (IC50). On the procedure:
(§1) The following was a study of the cytotoxicity study of compound of 2-(substituted phenylhetero)aromatic formic acid of formula (I) and its derivatives as FTO inhibitors on solid tumors including human small cell lung cancer cell lines (SCLC-21H), human bone marrow rhabdomyosarcoma cell line (RH30) and pancreatic cancer cell Line (KP3):
(§2) SCLC-21H, RH30 and KP3 solid tumor cell lines were cultivated separately, and seeded at 5000 cells per well in 96 well plates. The cells were cultured until the cells were adherent, and different compounds were added and the cultivation was continued for 72 hours. 10 uL of MTS solution was directly added and the mixture was incubated for 4 h, and the absorbance was measured at 490 nm. The inhibition rate was calculated by using the DMSO group as a control.

The test system of data set [3] is human bone marrow rhabdomyosarcoma cell line (RH30). The data set can be described thus: MTS cytotoxicity on RH30 cells. In kind it is cell-based. As to conditions: for inhibition at 50 µM / Inhibition rate (human bone marrow rhabdomyosarcoma cell RH30): 72 h, 50 μM; for inhibition at 50 µM: read-out: Inhibition rate (human bone marrow rhabdomyosarcoma cell RH30). On the procedure: as §1, §2

Data set [4] concerns pancreatic cancer cell Line (KP3). Kind of data set: MTS cytotoxicity on KP3 cells. It counts as cell-based. Here is the method:
as §1, §2

Chain of FTO (Q9C0B1 whole entry): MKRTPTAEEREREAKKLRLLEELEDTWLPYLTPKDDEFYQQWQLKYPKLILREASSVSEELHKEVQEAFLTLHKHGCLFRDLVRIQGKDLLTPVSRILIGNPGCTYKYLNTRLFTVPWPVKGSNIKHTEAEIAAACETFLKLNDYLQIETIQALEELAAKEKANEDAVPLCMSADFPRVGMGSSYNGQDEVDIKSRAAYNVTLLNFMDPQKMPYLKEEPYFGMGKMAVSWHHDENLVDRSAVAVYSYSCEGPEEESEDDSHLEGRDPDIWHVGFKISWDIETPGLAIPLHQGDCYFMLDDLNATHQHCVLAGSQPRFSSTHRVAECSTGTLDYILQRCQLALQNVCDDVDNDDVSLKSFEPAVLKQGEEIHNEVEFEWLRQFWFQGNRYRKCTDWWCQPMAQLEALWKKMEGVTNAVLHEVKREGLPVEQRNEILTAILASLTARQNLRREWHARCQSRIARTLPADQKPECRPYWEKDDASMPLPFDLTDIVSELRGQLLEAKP

Turning to `Cc1noc(C)c1-c1cc(Cl)c(Nc2ccccc2C(=O)NO)c(Cl)c1` [Compound 25], the IC50 in data set [1] was less than 1 µM; in data set [2] (Homo sapiens, SCLC-21H) it was 2.4 µM; in data set [3] (Homo sapiens, Rh30) it was 2.9 µM; in data set [4] (Pancreatic cancer cell), 2.9 µM. The inhibition at 50 µM in data set [1] was found to be 46%; in data set [2] (Homo sapiens, SCLC-21H), 78%; in data set [3] (Homo sapiens, Rh30), 75%.

On to `Cc1n[nH]cc1-c1cc(Cl)c(Nc2ccccc2C(=O)NO)c(Cl)c1` [Compound 31], for which, in data set [1], the IC50 is less than 5 µM and the Inhibition rate is reported as 70%. In data set [2], the “Inhibition rate (human small cell lung cancer SCLC-21H)” value was 75% and the IC50 was found to be 7.2 µM. Also, in data set [3], the IC50 worked out at 3.6 µM and the “Inhibition rate (human bone marrow rhabdomyosarcoma cell RH30)” value is recorded as 70%. In data set [4], this compound showed an IC50 of 6.2 µM.

For `Cc1n[nH]c(C)c1-c1cc(Cl)c(Nc2ccccc2C(=O)NO)c(Cl)c1` [Compound 32], in data set [2], the “Inhibition rate (human small cell lung cancer SCLC-21H)” value turned out to be 70% and the IC50 came to 2.1 µM. In addition, in data set [3], inhibition was half-maximal at 5.3 µM (IC50) and the “Inhibition rate (human bone marrow rhabdomyosarcoma cell RH30)” value is given as 63%. In addition, in data set [4], the half-inhibitory concentration (IC50) worked out at 5.6 µM.

In data set [1], `O=C(NO)c1ccccc1Nc1c(Cl)cc(-c2cn[nH]c2)cc1Cl` [Compound 33] registered an IC50 of less than 1 µM and an Inhibition rate of 63%. Also, in data set [2], the “Inhibition rate (human small cell lung cancer SCLC-21H)” value worked out at 83% and the IC50 was 7.1 µM. In data set [3], the IC50 was 4.1 µM and the “Inhibition rate (human bone marrow rhabdomyosarcoma cell RH30)” value was 86%. Also, in data set [4], the 50% inhibitory concentration (IC50) came to 2.2 µM.

For `Cc1noc(C)c1-c1cc(F)c(Nc2ccccc2C(=O)O)c(F)c1` [Compound 38], the half-maximal inhibitory concentration (IC50) was less than 1 µM in data set [1], 4.2 µM in data set [2], 9.2 µM in data set [3] and less than 1 µM in data set [4]. In data set [1], this compound yielded an Inhibition rate of 100%.

As to `Cc1noc(C)c1-c1cc(F)c(Nc2ccccc2C(=O)NO)c(F)c1` [Compound 39], the half-inhibitory concentration (IC50) in data set [1] is less than 1 µM; in data set [2], 7.3 µM; in data set [3], 3.2 µM; in data set [4], 2.6 µM. Moreover, the Inhibition rate in data set [1] is given as 90%.

Turning to `Cc1noc(C)c1-c1cc(Cl)c(Nc2ccc([N+](=O)[O-])cc2C(=O)O)c(Cl)c1` [Compound 74], the Inhibition rate in data set [1] is reported as 75%. The “Inhibition rate (human small cell lung cancer SCLC-21H)” value in data set [2] turned out to be 38%. Further, in data set [3], the “Inhibition rate (human bone marrow rhabdomyosarcoma cell RH30)” value came out at 32%.

Turning to `Cc1noc(C)c1-c1cc(Cl)c(Nc2ccc(N)cc2C(=O)O)c(Cl)c1` [Compound 75], the Inhibition rate in data set [1] is given as 58%. Further, the “Inhibition rate (human small cell lung cancer SCLC-21H)” value in data set [2] was determined as 60%. Also, the “Inhibition rate (human bone marrow rhabdomyosarcoma cell RH30)” value in data set [3] is given as 51%.

Take `CCN(CC)CCNC(=O)c1cccnc1Nc1c(Cl)cc(-c2c(C)noc2C)cc1Cl` [Compound 78]: the half-inhibitory concentration (IC50) in data set [2] was determined as 5.1 µM; in data set [3], 14.7 µM; in data set [4], 8.7 µM.

For `CCN(CC)CCNC(=O)c1ccccc1Nc1c(Cl)cc(-c2c(C)noc2C)cc1Cl` [Compound 79], in data set [2], the “Inhibition rate (human small cell lung cancer SCLC-21H)” value was 80% and the IC50 is less than 1 µM. In data set [3], half-maximal inhibition (IC50) was put at 2.6 µM and the “Inhibition rate (human bone marrow rhabdomyosarcoma cell RH30)” value came to 79%. This compound registered an IC50 in data set [4] of 2.6 µM.

In turn, `Cc1noc(C)c1-c1cc(Cl)c(Nc2ccccc2C(=O)NCCN2CCN(C)CC2)c(Cl)c1` [Compound 80] returned an Inhibition rate in data set [1] of 29%. Moreover, the “Inhibition rate (human small cell lung cancer SCLC-21H)” value in data set [2] stood at 86%. The IC50 was less than 1 µM in data set [2], 2 µM in data set [3] and 2 µM in data set [4]. The “Inhibition rate (human bone marrow rhabdomyosarcoma cell RH30)” value in data set [3] amounted to 82%.

For `CCN(CC)CCNC(=O)c1ccccc1Nc1c(Cl)cc(-c2cn[nH]c2)cc1Cl` [Compound 81], in data set [1], the Inhibition rate worked out at 67%. Besides, the “Inhibition rate (human small cell lung cancer SCLC-21H)” value in data set [2] is 83%. Further, the 50% inhibitory concentration (IC50) in data set [2] was 9.2 µM; in data set [3] it was 1.3 µM; in data set [4] it was less than 1 µM. The “Inhibition rate (human bone marrow rhabdomyosarcoma cell RH30)” value in data set [3] came out at 80%.

`Cc1noc(C)c1-c1cc(Cl)c(Nc2ccccc2C(=O)NCCCN2CCOCC2)c(Cl)c1` [Compound 82] registered an Inhibition rate in data set [1] of 29%. For the same compound, the 50% inhibitory concentration (IC50) in data set [2] was 9.9 µM; in data set [3] it was 1.6 µM; in data set [4] it was less than 1 µM.

As to `CCN(CC)CCNC(=O)c1ccccc1Nc1c(Cl)cc(-c2cc(F)cc(F)c2)cc1Cl` [Compound 83], the concentration for half-maximal inhibition (IC50) in data set [3] and in data set [4] was 4.7 µM each time.

On to `Cc1noc(C)c1-c1cc(Cl)c(Nc2ccccc2C(=O)OCOC(=O)C(C)(C)C)c(Cl)c1` [Compound 87], for which the inhibition at 50 µM in data set [1] came to 31%; in data set [2] (Homo sapiens, SCLC-21H), 26%; in data set [3] (Homo sapiens, Rh30), 28%.

The values are drawn from patent publication US11555009B2, “2-(substituted benzene matrix) aromatic formate FTO inhibitor, preparation method therefor, and applications thereof” (SHANGHAI INSTITUTE OF MATERIA MEDICA, CHINESE ACADEMY OF …, priority 2017, dated 2023).
